Measurements taken from US11541029B2, “High penetration compositions and their applications” (Techfields Pharma Co., Ltd., priority 2008, dated 2023).

Legend:
[1] = tested on: SLAC:NOD-IDDM, type 1 diabetes; experiment: Anti-diabetes (type I) activity of HPCs of NSAIAs; type: in vivo, mice
In short: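 Prodrugs given transdermally to the shaved back (about 1.5 cm^2) twice daily at 8 am and 5 pm for 7 weeks, dosed as equal to 20 mg/kg of NSAIA. Non-fasting blood glucose was measured every 3 days at 4:30 pm from week 4 to week 7.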

[2] = tested on: diseases and insects of rice; experiment: Antiviral, anti-fungus, anti-insect activity in rice; type: in vivo
normal SD rats (SLAC/SD) = experiment: Blood glucose in normal SD rats treated with HPCs of NSAIAs; type: in vivo; conditions: 30 mg/kg transdermally once per day, no fasting
In short: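 GK (type 2 diabetic) and normal SD rats, 14-16 weeks old, n=7, received 30 mg/kg test compound in 25% ethanol transdermally on a 6 cm^2 shaved back area once daily at 8 am for 6 weeks. Non-fasting blood glucose was measured at 4:30 pm every 3 days from week 3 to week 6.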

**Q.** How did the “blood glucose, Baseline” value ([1]; equal to 20 mg/kg of NSAIAs transdermally twice per day for 7 weeks) turn out when `CCN(CC)CCOC(=O)c1ccccc1OC(C)=O.Cl` [P-1, diethylaminoethyl acetylsalicylate.HCl salt] was run?
**A.** Its value is 18.1 ± 4.5 mmol/L.

**Q.** What about the “blood glucose, Average” value ([1]; fourth week to seventh week, no fasting, equal to 20 mg/kg of NSAIAs transdermally twice per day) of the same compound?
**A.** Its value is 7.5 ± 1.8 mmol/L.

**Q.** What about the “Yield of good rice” value ([2]; 1/2 acre per group, imidacloprid co-applied in group C) of the same compound?
**A.** The value was 1800 kg.

**Q.** What about the harvest dates earlier ([2]; group C and D) of the same compound?
**A.** Its harvest dates earlier is 5 days.

**Q.** And the “blood glucose, Average (Week 2-5)” value (normal SD rats (SLAC/SD))?
**A.** The value was 5.7 ± 1.3 mmol/L.

**Q.** And the “blood glucose, Day 1” value (normal SD rats (SLAC/SD))?
**A.** The value was 5.8 ± 1.5 mmol/L.
